According to patent US10479780B2, “Aminopyrazole derivatives” (Chugai Seiyaku Kabushiki Kaisha, priority 2015, dated 2019):
pIC50: −log10 of the molar value.

Experiments:
Assay type in all cases: biochemical
human Lck enzyme = target: T1, human Lck enzyme (Homo sapiens, UniProt P06239); assay: Lck enzyme inhibitory activity (time-resolved fluorometry, biotinylated peptide phosphorylation); conditions: biotinylated peptide phosphorylation, read-out: LCK_IC50
T1 construct: purchased Carna Biosciences, Inc. 08-170
T1 sequence (P06239 whole entry): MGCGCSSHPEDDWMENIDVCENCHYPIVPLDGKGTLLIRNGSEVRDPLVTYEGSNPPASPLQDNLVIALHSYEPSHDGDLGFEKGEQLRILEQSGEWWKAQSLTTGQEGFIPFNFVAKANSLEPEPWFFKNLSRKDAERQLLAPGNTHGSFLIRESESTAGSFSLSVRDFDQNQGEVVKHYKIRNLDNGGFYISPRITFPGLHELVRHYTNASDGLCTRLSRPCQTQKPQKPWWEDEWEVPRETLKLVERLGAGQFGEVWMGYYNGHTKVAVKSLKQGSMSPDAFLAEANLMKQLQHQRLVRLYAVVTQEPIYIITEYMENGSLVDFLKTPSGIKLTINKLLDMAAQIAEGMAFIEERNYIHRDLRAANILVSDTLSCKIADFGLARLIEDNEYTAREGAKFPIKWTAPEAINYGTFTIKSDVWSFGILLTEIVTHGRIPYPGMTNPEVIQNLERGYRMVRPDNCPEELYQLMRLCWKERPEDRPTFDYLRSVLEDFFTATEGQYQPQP
Procedure, shortened: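 Readout pairs a europium cryptate-labelled anti-phosphotyrosine antibody with XL665-streptavidin, measured by time-resolved fluorescence. IC50 derived from percent inhibition against untreated controls.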

human Yes1 enzyme = target: T2, human Yes1 enzyme (Homo sapiens, UniProt P07947); assay: Yes1 enzyme inhibitory activity (time-resolved fluorometry, biotinylated peptide phosphorylation); conditions: biotinylated peptide phosphorylation, read-out: YES_IC50
T2 construct: made in house
T2 sequence (P07947 whole entry): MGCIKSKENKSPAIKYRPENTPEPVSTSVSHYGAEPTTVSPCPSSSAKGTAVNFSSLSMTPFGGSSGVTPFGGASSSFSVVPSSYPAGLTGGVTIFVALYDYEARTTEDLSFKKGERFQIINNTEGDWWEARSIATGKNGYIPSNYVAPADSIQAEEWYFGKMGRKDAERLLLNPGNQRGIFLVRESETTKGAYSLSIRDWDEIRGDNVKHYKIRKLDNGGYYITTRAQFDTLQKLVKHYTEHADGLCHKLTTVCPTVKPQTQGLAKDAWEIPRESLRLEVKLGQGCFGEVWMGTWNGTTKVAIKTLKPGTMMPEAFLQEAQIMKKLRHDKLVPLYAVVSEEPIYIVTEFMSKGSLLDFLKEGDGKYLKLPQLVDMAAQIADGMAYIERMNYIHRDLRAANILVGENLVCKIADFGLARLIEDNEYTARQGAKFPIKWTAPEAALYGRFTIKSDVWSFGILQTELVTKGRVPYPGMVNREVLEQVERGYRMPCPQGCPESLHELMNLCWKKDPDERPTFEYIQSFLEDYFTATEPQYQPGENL
Procedure, shortened: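 Inhibition was expressed against a compound-free control to give IC50, using TR-FRET read-out (Eu-cryptate anti-pTyr antibody, streptavidin-XL665).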

human Src enzyme = target: T3, human Src enzyme (Homo sapiens, UniProt P12931); assay: Src enzyme inhibitory activity (time-resolved fluorometry, biotinylated peptide phosphorylation); conditions: biotinylated peptide phosphorylation, read-out: SRC_IC50
T3 construct: purchased Carna Biosciences, Inc. 08-173
T3 sequence (P12931 whole entry): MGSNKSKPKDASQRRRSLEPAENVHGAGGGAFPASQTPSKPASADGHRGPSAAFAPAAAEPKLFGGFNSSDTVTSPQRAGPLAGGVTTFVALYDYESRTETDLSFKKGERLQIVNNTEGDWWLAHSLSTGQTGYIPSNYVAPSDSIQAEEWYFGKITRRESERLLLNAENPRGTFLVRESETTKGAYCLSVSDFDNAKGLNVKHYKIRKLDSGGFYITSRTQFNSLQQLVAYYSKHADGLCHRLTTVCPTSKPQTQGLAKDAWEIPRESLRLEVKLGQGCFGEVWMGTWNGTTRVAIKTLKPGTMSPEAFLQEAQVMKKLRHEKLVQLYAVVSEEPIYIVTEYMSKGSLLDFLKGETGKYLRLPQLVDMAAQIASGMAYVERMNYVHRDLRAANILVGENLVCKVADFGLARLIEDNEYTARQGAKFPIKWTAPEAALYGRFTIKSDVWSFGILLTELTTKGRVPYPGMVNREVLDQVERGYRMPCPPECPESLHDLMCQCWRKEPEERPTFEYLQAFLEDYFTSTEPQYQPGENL
Procedure, shortened: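 Compounds were tested for blocking tyrosine phosphorylation of a biotinylated peptide substrate by recombinant human Src. Phosphorylated product was quantified by time-resolved fluorometry using europium cryptate and XL665 conjugates, and IC50 was calculated against the compound-free control.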

Structure (SMILES) | pIC50 (human Lck enzyme) | pIC50 (human Yes1 enzyme) | pIC50 (human Src enzyme)
Cc1cc(Oc2c(F)cccc2F)ncc1-n1ncc(C(=O)c2cc3cc(F)c(N4CCCS4(=O)=O)cc3[nH]2)c1N [Example 4-9-002, [5-amino-1-[6-(2,6-difluorophenoxy)-4-methylpyridin-3-yl]pyrazol-4-yl]-[6-(1,1-dioxo-1,2-thiazolidin-2-yl)-5-fluoro-1H-indol-2-yl]methanone] | 9.02 | 9.14 | 8.01
CCN(CC)C(=O)CS(=O)(=O)Nc1cc2[nH]c(C(=O)c3cnn(-c4cnc(Oc5ccccc5F)cc4C)c3N)cc2cc1F [Example 4-10-001, 2-{{2-{5-amino-1-[6-(2-fluorophenoxy)-4-methylpyridin-3-yl]pyrazole-4-carbonyl}-5-fluoro-1H-indol-6-yl}sulfamoyl}-N,N-diethylacetamide] | 7.74 | 8.68 | 7.07
Cc1cc(Oc2ccccc2F)ccc1-n1ncc(C(=O)c2cc3cc(F)c(NS(=O)(=O)CC(=O)NC(C)C)cc3[nH]2)c1N [Example 4-10-002, 2-[[2-[5-amino-1-[4-(2-fluorophenoxy)-2-methylphenyl]pyrazole-4-carbonyl]-5-fluoro-1H-indol-6-yl]sulfamoyl]-N-propan-2-ylacetamide] | 7.96 | 9.11 | 7.57
Cc1cc(Oc2ccccc2F)ncc1-n1ncc(C(=O)c2cc3cc(F)c(NS(=O)(=O)CC(=O)N4CCCC4)cc3[nH]2)c1N [Example 4-10-005, N-[2-[5-amino-1-[6-(2-fluorophenoxy)-4-methylpyridin-3-yl]pyrazole-4-carbonyl]-5-fluoro-1H-indol-6-yl]-2-oxo-2-pyrrolidin-1-ylethanesulfonamide] | 7.80 | 8.55 | 7.24
Cc1cc2cc(C(=O)c3cnn(-c4ccc(Oc5ccccc5F)cc4C)c3N)[nH]c2cc1NS(=O)(=O)CC(=O)NC(C)C [Example 4-10-008, 2-[[2-[5-amino-1-[4-(2-fluorophenoxy)-2-methylphenyl]pyrazole-4-carbonyl]-5-methyl-1H-indol-6-yl]sulfamoyl]-N-propan-2-ylacetamide] | 8.02 | 8.70 | 7.27
Cc1cc2cc(C(=O)c3cnn(-c4cnc(Oc5c(F)cccc5F)cc4C)c3N)[nH]c2cc1NS(=O)(=O)CC(=O)N1CCOCC1 [Example 4-10-010, N-[2-[5-amino-1-[6-(2,6-difluorophenoxy)-4-methylpyridin-3-yl]pyrazole-4-carbonyl]-5-methyl-1H-indol-6-yl]-2-morpholin-4-yl-2-oxoethanesulfonamide] | 8.15 | 8.89 | 7.59
COc1cc2cc(C(=O)c3cnn(-c4ccc(Oc5ccccc5F)cc4C)c3N)[nH]c2cc1NS(=O)(=O)CC(=O)NC(C)C [Example 4-10-011, 2-[[2-[5-amino-1-[4-(2-fluorophenoxy)-2-methylphenyl]pyrazole-4-carbonyl]-5-methoxy-1H-indol-6-yl]sulfamoyl]-N-propan-2-ylacetamide] | 8.42 | 9.19 | 7.60
COc1cc2cc(C(=O)c3cnn(-c4c(C)cc(Oc5ccccc5F)cc4F)c3N)[nH]c2cc1NS(=O)(=O)CC(=O)N1CCOCC1 [Example 4-10-013, N-[2-[5-amino-1-[2-fluoro-4-(2-fluorophenoxy)-6-methylphenyl]pyrazole-4-carbonyl]-5-methoxy-1H-indol-6-yl]-2-morpholin-4-yl-2-oxoethanesulfonamide] | 7.96 | 8.92 | 7.54
COc1cc2cc(C(=O)c3cnn(-c4cnc(Oc5ccccc5F)cc4C)c3N)[nH]c2cc1NS(=O)(=O)CC(=O)N1CCCC1 [Example 4-10-014, N-[2-[5-amino-1-[6-(2-fluorophenoxy)-4-methylpyridin-3-yl]pyrazole-4-carbonyl]-5-methoxy-1H-indol-6-yl]-2-oxo-2-pyrrolidin-1-ylethanesulfonamide] | 8.00 | 9.27 | 7.54
COc1cc2cc(C(=O)c3cnn(-c4cnc(Oc5ccccc5F)cc4C)c3N)[nH]c2cc1NS(=O)(=O)CC(=O)NC(C)C [Example 4-10-015, 2-[[2-[5-amino-1-[6-(2-fluorophenoxy)-4-methylpyridin-3-yl]pyrazole-4-carbonyl]-5-methoxy-1H-indol-6-yl]sulfamoyl]-N-propan-2-ylacetamide] | 8.14 | 8.96 | 7.24

The next lines start with the values.

pIC50 (human Lck enzyme) | pIC50 (human Yes1 enzyme) | pIC50 (human Src enzyme) | Structure (SMILES)
8.31 | 9.12 | 7.59 | Cc1cc(Oc2ccccc2F)ccc1-n1ncc(C(=O)c2cc3cc(F)c(NS(=O)(=O)CC(=O)N4CCN(C(C)C)CC4)cc3[nH]2)c1N [Example 4-10-003, N-[2-[5-amino-1-[4-(2-fluorophenoxy)-2-methylphenyl]pyrazole-4-carbonyl]-5-fluoro-1H-indol-6-yl]-2-oxo-2-(4-propan-2-ylpiperazin-1-yl)ethanesulfonamide 2,2,2-trifluoroacetate]
8.08 | 9.28 | 7.92 | Cc1cc(Oc2ccccc2F)ccc1-n1ncc(C(=O)c2cc3cc(F)c(NS(=O)(=O)CC(=O)N4CCOCC4)cc3[nH]2)c1N [Example 4-10-004, N-[2-[5-amino-1-[4-(2-fluorophenoxy)-2-methylphenyl]pyrazole-4-carbonyl]-5-fluoro-1H-indol-6-yl]-2-morpholin-4-yl-2-oxoethanesulfonamide]
7.72 | 9.00 | 7.43 | Cc1cc(Oc2ccccc2F)ncc1-n1ncc(C(=O)c2cc3cc(F)c(NS(=O)(=O)CC(=O)N4CCOCC4)cc3[nH]2)c1N [Example 4-10-006, N-[2-[5-amino-1-[6-(2-fluorophenoxy)-4-methylpyridin-3-yl]pyrazole-4-carbonyl]-5-fluoro-1H-indol-6-yl]-2-morpholin-4-yl-2-oxoethanesulfonamide]
8.07 | 9.32 | 7.89 | Cc1cc2cc(C(=O)c3cnn(-c4ccc(Oc5ccccc5F)cc4C)c3N)[nH]c2cc1NS(=O)(=O)CC(=O)N1CCOCC1 [Example 4-10-007, N-{2-{5-amino-1-[4-(2-fluorophenoxy)-2-methylphenyl]pyrazole-4-carbonyl}-5-methyl-1H-indol-6-yl}-2-morpholin-4-yl-2-oxoethanesulfonamide]
7.72 | 8.57 | 7.48 | Cc1cc2cc(C(=O)c3cnn(-c4c(C)cc(Oc5ccccc5F)cc4F)c3N)[nH]c2cc1NS(=O)(=O)CC(=O)N1CCOCC1 [Example 4-10-009, N-[2-[5-amino-1-[2-fluoro-4-(2-fluorophenoxy)-6-methylphenyl]pyrazole-4-carbonyl]-5-methyl-1H-indol-6-yl]-2-morpholin-4-yl-2-oxoethanesulfonamide]
8.29 | 9.52 | 8.01 | COc1cc2cc(C(=O)c3cnn(-c4ccc(Oc5ccccc5F)cc4C)c3N)[nH]c2cc1NS(=O)(=O)CC(=O)N1CCOCC1 [Example 4-10-012, N-[2-[5-amino-1-[4-(2-fluorophenoxy)-2-methylphenyl]pyrazole-4-carbonyl]-5-methoxy-1H-indol-6-yl]-2-morpholin-4-yl-2-oxoethanesulfonamide]
